Structures can show the parent of a compound that is named as a salt.
Assays:
[1] = target: T1, EP3 receptors (Homo sapiens, UniProt P43115); assay: human EP3 calcium mobilisation assay (CHO-K1 cells, PGE2, FLIPR); type: cell-based; conditions: free bases or sodium salts; averages of a number of experiments; read-out: functional pKi value, human EP3 calcium mobilisation assay (converted)
T1 construct: expressed in transfected cells; host or cells: CHO-K1
T1 sequence (P43115 1-390): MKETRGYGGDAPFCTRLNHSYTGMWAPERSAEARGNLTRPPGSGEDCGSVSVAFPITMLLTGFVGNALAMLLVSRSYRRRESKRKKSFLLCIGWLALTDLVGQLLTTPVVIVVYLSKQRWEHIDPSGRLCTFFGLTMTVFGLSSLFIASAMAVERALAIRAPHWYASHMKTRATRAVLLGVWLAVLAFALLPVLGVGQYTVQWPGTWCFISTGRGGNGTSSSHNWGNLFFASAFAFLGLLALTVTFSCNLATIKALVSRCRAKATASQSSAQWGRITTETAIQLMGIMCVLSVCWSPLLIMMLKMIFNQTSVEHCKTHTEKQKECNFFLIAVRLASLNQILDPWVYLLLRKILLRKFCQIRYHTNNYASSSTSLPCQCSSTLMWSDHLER
Procedure: (§1) Briefly, the antagonist properties of compounds are assessed by their ability to inhibit the mobilisation of intracellular calcium ([Ca^2+]i) in response to activation of EP1 or EP3 receptors by the natural agonist hormone prostaglandin E2 (PGE2). Increasing concentrations of antagonist reduce the amount of calcium that a given concentration of PGE2 can mobilise. The net effect is to displace the PGE2 concentration-effect curve to higher concentrations of PGE2. The amount of calcium produced is assessed using a calcium-sensitive fluorescent dye such as Fluo-4, AM and a suitable instrument such as a Fluorimetric Imaging Plate Reader (FLIPR). Increasing amounts of [Ca^2+]i produced by receptor activation increase the amount of fluorescence produced by the dye and give rise to an increasing signal. The signal may be detected using the FLIPR instrument and the data generated may be analysed with suitable curve-fitting software.
(§2) The human EP1 or EP3 calcium mobilisation assay (hereafter referred to as ‘the calcium assay’) utilises Chinese hamster ovary-K1 (CHO-K1) cells into which a stable (pCIN; BioTechniques 20 (1996): 102-110) vector containing either EP1 or EP3 cDNA has previously been transfected. Cells are cultured in suitable flasks containing culture medium such as DMEM:F-12 supplemented with 10% v/v foetal calf serum, 2 mM L-glutamine, 0.25 mg/ml geneticin, 100 μM flurbiprofen and 10 µg/ml puromycin.
(§3) For assay, cells are harvested using a proprietary reagent that dislodges cells such as Versene. Cells are re-suspended in a suitable quantity of fresh culture media for introduction into a 384-well plate. Following incubation for 24 hours at 37° C. the culture media is replaced with a medium containing Fluo-4 and the detergent pluronic acid, and a further incubation takes place. Concentrations of compounds are then added to the plate in order to construct concentration-effect curves. This may be performed on the FLIPR in order to assess the agonist properties of the compounds. Concentrations of PGE2 are then added to the plate in order to assess the antagonist properties of the compounds.
The data so generated may be analysed by means of a computerised curve-fitting routine. The concentration of compound that elicits a half-maximal inhibition of the calcium mobilisation induced by PGE2 (pIC50) may then be estimated.

[2] = target: T2, TP receptor (Homo sapiens, UniProt P21731); assay: human TP calcium mobilisation assay (CHO-K1 cells, U46619, FLIPR); type: cell-based; conditions: free bases or sodium salts; read-out: functional pKi, human TP calcium mobilisation assay (converted)
T2 construct: expressed in transfected cells; host or cells: CHO-K1
T2 sequence (P21731 1-343): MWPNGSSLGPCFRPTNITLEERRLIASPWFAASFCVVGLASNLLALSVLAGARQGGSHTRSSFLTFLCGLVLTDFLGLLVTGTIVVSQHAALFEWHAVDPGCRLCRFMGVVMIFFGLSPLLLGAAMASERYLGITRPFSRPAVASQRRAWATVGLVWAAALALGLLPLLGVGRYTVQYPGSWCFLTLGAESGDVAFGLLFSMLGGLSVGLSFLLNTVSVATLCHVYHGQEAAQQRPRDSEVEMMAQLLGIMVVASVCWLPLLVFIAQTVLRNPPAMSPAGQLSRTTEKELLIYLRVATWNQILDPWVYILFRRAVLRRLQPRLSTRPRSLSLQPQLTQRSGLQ
Procedure: as §1, with “To determine if a compound has agonist or antagonist activity at the TP receptor a functional calcium mobilisation assay may be performed. Briefly,” for “Briefly,”, “TP” for “EP1 or EP3”, “stable TXA2 mimetic U46619 (9,11-dideoxy-11α,9α-epoxy-methanoprostaglandin F2 α; commercially available from e.g Sigma-Aldrich).” for “natural agonist hormone prostaglandin E2 (PGE2).”, “U46619” for “PGE2”, “curve.” for “curve to higher concentrations of PGE2.”, “software. The agonist activity of the compounds are determined by their ability to cause an increase in intracellular mobilisation in the absence of U46619.” for “software.”
as §2, with “TP” for “EP1 or EP3”, “assay” for “assay (hereafter referred to as ‘the calcium assay’)”, “TP” for “either EP1 or EP3”, “μg/ml” for “µg/ml”
as §3, with “96-well” for “384-well”, “U46619” for “PGE2”
The data so generated may be analysed by means of a computerised curve-fitting routine. The concentration of compound that elicits a half-maximal inhibition of the calcium mobilisation induced by U46619 (plC50) may then be estimated, and the percentage activation caused by the compounds directly can be used to determine if there is any agonism present.

Row | Ki [1] [µM] | Ki [2] [µM] | SMILES
1 | > 10 | < 1 | O=C(O)c1cccc(Cc2cc(Cl)ccc2OCc2ccc(F)cc2F)n1 [Example 4, Sodium 6-[(5-chloro-2-{[(2,4-difluorophenyl)methyl]oxy}phenyl)methyl]-2-pyridinecarboxylate]
2 | > 10 | < 1 | O=C(O)c1cccc(Cc2cc(Cl)ccc2OCc2ccc(F)cc2Cl)n1 [Example 11, Sodium 6-[(5-chloro-2-{[(2-chloro-4-fluorophenyl)methyl]oxy}phenyl)methyl]-2-pyridinecarboxylate]
3 | > 10 | < 1 | O=C(O)c1cccc(Cc2cc(Cl)ccc2OCc2cc(F)c(F)cc2F)n1 [Example 10, Sodium 6-[(5-chloro-2-{[(2,4,5-trifluorophenyl)methyl]oxy}phenyl)methyl]-2-pyridinecarboxylate]
4 | – | ≤ 0.0316 | O=C(O)c1cccc(Cc2cc(Cl)ccc2OCc2ccc(Cl)cc2Cl)n1 [Example 12, Sodium 6-[(5-chloro-2-{[(2,4-dichlororophenyl)methyl]oxy}phenyl)methyl]-2-pyridinecarboxylate]
5 | – | ≤ 0.0316 | O=C(O)c1cccc(Cc2cc(Cl)ccc2OCc2ccc(Cl)cc2F)n1 [Example 3, Sodium 6-[(5-chloro-2-{[(4-chloro-2-fluorophenyl)methyl]oxy}phenyl)methyl]-2-pyridinecarboxylate]

Further lines, the molecule ahead of its results:

Row | SMILES | Ki [1] [µM] | Ki [2] [µM]
6 | CCCS(=O)(=O)NC(=O)c1cccc(Cc2cc(Cl)ccc2OCc2ccc(Cl)cc2F)n1 [Example 30, 6-[(5-Chloro-2-{[(4-chloro-2-fluorophenyl)methyl]oxy}-phenyl)methyl]-N-(propylsulphonyl)-2-pyridinecarboxamide] | > 10 | < 1
7 | O=C(NS(=O)(=O)c1ccc(Br)cc1)c1cccc(Cc2cc(Cl)ccc2OCc2ccc(Cl)cc2F)n1 [Example 33, N-[(4-Bromophenyl)sulphonyl]-6-[(5-chloro-2-{[(4-chloro-2-fluorophenyl)methyl]oxy}phenyl)-methyl]-2-pyridinecarboxamide] | – | > 1
8 | Cc1ccc(C(=O)O)nc1Cc1cc(Cl)ccc1OCc1ccc(Cl)cc1F [Example 39, 6-[(5-Chloro-2-{[(4-chloro-2-fluorophenyl)methyl]oxy}-phenyl)methyl]-5-methyl-2-pyridinecarboxylic acid, sodium salt] | – | ≤ 0.0316
9 | O=C(O)c1cccc(Cc2cc(Cl)ccc2OCC2CCCC2)n1 [Example 14, Sodium 6-({5-chloro-2-[(cyclopentylmethyl)oxy]phenyl}methyl)-2-pyridinecarboxylate] | – | < 1
10 | Fc1cc(Cl)ccc1COc1ccc(Cl)cc1Cc1cccc(-c2nnn[nH]2)n1 [Example 38, 2-[(5-Chloro-2-{[(4-chloro-2-fluorophenyl)methyl]oxy}phenyl)-methyl]-6-(1H-tetrazol-5-yl)pyridine] | – | ≤ 0.0316
11 | O=C(NS(=O)(=O)c1cccc(Br)c1)c1cccc(Cc2cc(Cl)ccc2OCc2ccc(Cl)cc2F)n1 [Example 34, N-[(3-Bromophenyl)sulphonyl]-6-[(5-chloro-2-{[(4-chloro-2-fluorophenyl)methyl]oxy}phenyl)-methyl]-2-pyridinecarboxamide] | – | ≤ 0.0316
12 | O=C(NS(=O)(=O)c1ccccc1)c1cccc(Cc2cc(Cl)ccc2OCc2ccc(Cl)cc2F)n1 [Example 28, 6-[(5-chloro-2-{[(4-chloro-2-fluorophenyl)methyl]oxy}phenyl)-methyl]-N-(phenylsulphonyl)-2-pyridinecarboxamide] | > 10 | < 1
13 | Cc1noc(C)c1S(=O)(=O)NC(=O)c1cccc(Cc2cc(Cl)ccc2OCc2ccc(Cl)cc2F)n1 [Example 36, 6-[(5-Chloro-2-{[(4-chloro-2-fluorophenyl)methyl]oxy}-phenyl)methyl]-N-[(3,5-dimethyl-4-isoxazolyl)sulphonyl]-2-pyridinecarboxamide] | > 10 | < 1
14 | CS(=O)(=O)NC(=O)c1cccc(Cc2cc(Cl)ccc2OCc2ccc(Cl)cc2F)n1 [Example 29, 6-[(5-Chloro-2-{[(4-chloro-2-fluorophenyl)methyl]oxy}-phenyl)methyl]-N-(methylsulphonyl)-2-pyridinecarboxamide] | > 10 | > 1
